We go through 6 compounds from patent publication US20260242373A1, “NBD1 MODULATORS AND METHODS OF USING THE SAME” (Sionna Therapeutics Inc., priority 2023, published 2026).

In one experiment the test system is NBD1. The experiment can be described thus: Aggregation analysis of NBD1 thermal stability by differential static light scattering (DSLS). It counts as binding, Human. Conditions: 100 μM compound; ΔTagg versus DMSO control. The procedure:
Purified recombinant NBD1 was produced using previously described methods (A. Schmidt, J. L. Mendoza, P. J. Thomas (2011) Biochemical and Biophysical Approaches to Probe CFTR Structure (365-376) M. D. Amaral, K. Kunzelmann (eds.), Cystic Fibrosis, Methods in Molecular Biology 741, Springer Science+Business Media). The effect of test compounds on thermal stability of NBD1 was evaluated by differential static light scattering (DSLS) using the Harbinger Stargazer-384 instrument (Epiphyte Three, Toronto, Canada). Test compounds were dissolved and diluted to desired concentrations in 100% DMSO. The compounds or DMSO controls (100 nL) were stamped into wells of a […] low volume optical plate (Corning Inc., Corning, NY) using the Echo 555 acoustic liquid handler (Labcyte Inc., San Jose, CA).
NBD1 protein was diluted to 0.2 mg/ml in S200 buffer (50 mM Tris-HCl, 150 mM NaCl, 5 mM MgCl2, 2 mM ATP, 2 mM DTT, pH7.6) containing 1% glycerol. 10 uL of protein solution was aliquoted into the 384-well plate harboring the test compounds and 10 uL mineral oil was overlayed onto the protein solution, using the epMotion robotic liquid handler (Eppendorf North America, Hauppauge, NY). After placing into the Stargazer instrument, the plate was heated at 1° C. per minute to 70° C. Images were captured from 25° C. to 70° C. every 0.5° C. At the end of the experiment run, instrument software integrated image files and analyzed data automatically. A […] regression curve was generated for each well, representing the increase in light scattering over time. A temperature of aggregation (Tagg) was calculated based on the inflection point of the curve. To better compare data across experiments the average Tagg for DMSO control wells was calculated and subtracted from values for wells containing compounds to obtain a “ΔTagg” value. These ΔTagg values reflect stabilizing efficacy of the compounds.

For experiment [1], the system named is Primary human bronchial epithelial cells from a ΔF508 homozygous CF donor (CF-HBE cells). The experiment can be described thus: TECC24 recording of CFTR-mediated transepithelial chloride transport, AUC fold over DMSO. In kind it is cell-based. Conditions: 48 hours incubation, ratio of test agent AUC to vehicle AUC of forskolin-stimulated IEQ. The protocol:
The effects of a test agent on CFTR-mediated transepithelial chloride transport was measured using TECC24 recording analysis. Test agents were solubilized in DMSO. Solubilized test agents were mixed with incubation medium containing DMEM/F12, Ultroser G (2%; Crescent Chemical, catalog #67042), Hyclone Fetal Clone 11 (2%; GE Healthcare, catalog #SH30066.02), bovine brain extract (0.25%; Lonza, catalog #CC-4098), insulin (2.5 μg/mL), IL-13 (10 ng/mL), hydrocortisone (20 nM), transferrin ([…]), triiodothyronine (500 nM), ethanolamine (250 nM), epinephrine (1.5 μM), phosphoethanolamine (250 nM), and retinoic acid (10 nM). Primary human bronchial epithelial cells from a ΔF508 homozygous CF donor (CF-HBE cells; from University of North Carolina Cystic Fibrosis Tissue Procurement Center), grown on Transwell HTS 24-well cell culture inserts (Costar, catalog #3378), were exposed to test agents or controls dissolved in incubation medium. The CF-HBE cells were cultured at 36.5° C. for 48 hours before TECC24 recordings were performed in the presence or absence of test agent, a positive control or vehicle (DMSO).
Following incubation, the transwell cell culture inserts containing the test agent or control-treated CF-HBE cells were loaded onto a TECC24 apparatus (TECC v7 or MTECC v2; EP Design) to record the transepithelial voltage (VT) and resistance (TEER) using 4 AgCl electrodes per well configured in current-clamp mode. The apical and basolateral bath solutions both contained (in mM) 140 NaCl, 5 KCl, 2 CaCl2), 1 MgCl2, 10 Hepes, and 10 glucose (adjusted to pH 7.4 with NaOH). To inhibit basal Na+ absorption, the ENaC inhibitor benzamil (10 μM) was added to the bath. Then, the adenylate cyclase activator, forskolin ([…]), was added to the bath to activate CFTR. The forskolin-stimulated Cl— transport was halted by addition of CFTR inhibitor-172 ([…]) to the bath at the end of the experiment to confirm specificity. […] Efficacy is expressed as the ratio of the test agent AUC divided by vehicle AUC. […]

SMILES strings stand for the structures.

Consider `C[C@@H](c1nc(-c2cc(Oc3c(F)cc4[nH]ccc4c3F)ccc2F)n(C)n1)c1ccc(CCC(=O)O)s1` (single isomer, unassigned) [Compound 44], for which the “DSLS NBD1/3D Human Stability delta-T (° C.) @ 100 (μM)” value (from here on “DSLS NBD1/3D Human Stability delta-T”) in the experiment with NBD1 is recorded as “B (B: 4-8° C.)”. For the same compound, in experiment [1], the “TECC24 @ 10 uM over DMSO” value was “C (“C” refers to AUC @ 10 uM <=4)”.

In the case of `Cc1c(Oc2ccc(F)c(-c3nc(Cc4csc(CCC(=O)O)c4)c[nH]3)c2)c(F)cc2[nH]ccc12` [Compound 4, 3-(4-((2-(2-fluoro-5-((6-fluoro-4-methyl-1H-indol-5-yl)oxy)phenyl)-1H-imidazol-4-yl)methyl)thiophen-2-yl)propanoic acid], in the experiment with NBD1, the “DSLS NBD1/3D Human Stability delta-T” value is “B (B: 4-8° C.)”. Moreover, the “TECC24 @ 10 uM over DMSO” value in experiment [1] is “C (“C” refers to AUC @ 10 uM <=4)”.

For the compound `Cn1cc(C(O)c2cnc(-c3cccc(Oc4ccc5[nH]ccc5n4)c3)[nH]2)cn1` (stereo not drawn) [Compound 32, (2-(3-((1H-pyrrolo[3,2-b]pyridin-5-yl)oxy)phenyl)-1H-imidazol-5-yl)(1-methyl-1H-pyrazol-4-yl)methanol], in the experiment with NBD1, the “DSLS NBD1/3D Human Stability delta-T” value was “C (C: ≤4° C.)”.

For `c1cc(Oc2ccc3[nH]ccc3c2)cc(-c2nnc(Cc3cccs3)[nH]2)c1` [Compound 10, 5-(3-(5-(thiophen-2-ylmethyl)-4H-1,2,4-triazol-3-yl)phenoxy)-1H-indole], the “DSLS NBD1/3D Human Stability delta-T” value with NBD1 is “C (C: ≤4° C.)”. For the same compound, in experiment [1], the “TECC24 @ 10 uM over DMSO” value is “C (“C” refers to AUC @ 10 uM <=4)”.

For the compound `Clc1ccc(Cc2n[nH]c(-c3cccc(Oc4cc5cc[nH]c5cn4)c3)n2)s1` [Compound 19, 5-(3-(3-((5-chlorothiophen-2-yl)methyl)-1H-1,2,4-triazol-5-yl)phenoxy)-1H-pyrrolo[2,3-c]pyridine], the “DSLS NBD1/3D Human Stability delta-T” value in the experiment on NBD1 is “C (C: ≤4° C.)”.

With `Cc1ccc(Cc2nnc(-c3cccc(Oc4cc5cc[nH]c5cn4)c3)[nH]2)s1` [Compound 8, 5-(3-(5-((5-methylthiophen-2-yl)methyl)-4H-1,2,4-triazol-3-yl)phenoxy)-1H-pyrrolo[2,3-c]pyridine], in the experiment on NBD1, the “DSLS NBD1/3D Human Stability delta-T” value is listed as “C (C: ≤4° C.)”.
